The text below walks through data of patent US11278682B2, “Device and method for aerosolized delivery of substance to a natural orifice of the body” (SIPNOSE LTD., priority 2014, dated 2022).

Like-named read-outs stand apart in the source and are kept apart here.

The conditions of series [1]: rat, in vivo. The method, then:
For most liquid drug formulations, the drugs are dissolved in, suspended in or mixed with water-based liquids. However, many of the cannabis derivatives that show promise as therapeutic agents, such as the cannabinoids, need to be dissolved in oil. Therefore, a study was done to investigate uptake to the brain of an oil-based formulation. For this study, Fluorescein was dissolved in oil and administered intranasally, via the SipNose device, to rats. Fluorescein was administered to the control animals intravenously.

The nature of series [2]: Brain absorption of insulin after SipNose nasal administration (quantitative ELISA). Format: in vivo. Particulars: rabbit; 10 U/Kg via SipNose nasal administration; 1 h, 2 h, 3 h post administration. As to the method:
The substance in this experiment is Human Insulin (Lispro insulin, 5807 Da); the animal model is a rabbit. Administration was 10 U/Kg of Human Insulin via SipNose nasal administration. Brain concentrations were measured using insulin quantitative ELISA at 1 h, 2 h, and 3 h post administration.
(An ELISA detects its analyte on a solid surface through an enzyme-linked reagent.)

Series [3] can be described thus: Blood and brain absorption of insulin, SipNose nasal vs IV administration. Format: in vivo, rabbit. Particulars: rabbits, 0.5 U/kg. As to the method: In FIG. 76A-C, the efficacy of delivery of insulin to the brain is compared for the SipNose device vs. IV administration. The substance was Lispro insulin (5,807 Da) administered to rabbits. Four rabbits were used; all animals were given 0.5 U/kg of Human Insulin. Administration was via IV for rabbits 1 and 3 and via SipNose nasal administration for rabbits 2 and 4. Brain concentrations were measured using insulin quantitative ELISA.

Series [4] deals with rats. Particulars: cited from earlier work.
Another series is described as follows: in vivo. Particulars: male, Sprague-Dawley, rat, 6 mg; for half-life: Half-life (estimated).
For series [5] the following is noted: rat, in vivo. This is another data set of the same source.
Experimental: (§3) A total of 13 male Sprague-Dawley rats were utilized. The animals were divided into four treated groups of three rats and one group with one naïve control rat.
(§4) The following tests were performed: • After sacrifice, gross pathology was performed, examining the nasal cavity (both sides, including the olfactory epithelium), the nasopharynx, paranasal sinus, trachea, lungs, brain (in several areas including the olfactory bulb), heart and larynx. • A histopathological evaluation of all groups of animals was made. • Blood was collected and plasma prepared 10, 30 and 90 min after the first and second administration and at termination.
(§5) IN application was carried out using solution at a dose volume of 300 μl per naris or as a powder (in two formulations). In all cases the total dose per rat was 6 mg of Topiramate. Prior to application of the test material, lidocaine was applied locally to the outer area of the nostril in order to decrease the level of distress.
(§6) Blood samples were collected into Li-Heparin tubes on ice, at 10, 30 and 90 min post first and second dosing. A blood volume of approximately 300 μl was obtained at each time point.
(§7) Topiramate was administered to the relevant study groups twice, with a five hour interval between administrations.
The nature of series [6]: Repeated Topiramate dosing: plasma and brain concentrations. Format: in vivo. Particulars: rat, 0.78 mg, rats. As to the method:
(§1) The study was performed according to the parameters of Table 31, for group allocation, and Table 32, for the study time-line. […] This provided a total of 1.56 mg per day per animal. For the liquid nasal samples, the administration was performed IN via SipNose's dedicated device at doses of 78 μL, from 10 mg/ml stock, or orally, after dilution to a dose volume of 200 μL. Food consumption was monitored two days before study initiation and daily during the study. Three (3) animals per group were sacrificed 45 minutes after the first dose of the first day, and six animals per group were sacrificed after 6 consecutive days of dosing, via CO2 asphyxiation.
(§2) Perfusion was performed under anesthesia with Isoflurane, using saline, for further PK examination of compounds in the brain.
Animals were sacrificed 45 minutes after the first administration of Day 1 and the last administration of Day 6, following blood sampling of 400 μL, if required, as described below. Three (3) rats, sacrificed after the first dosing day, were perfused with saline for PK analysis of blood and brain. Animals sacrificed on the last day of the study ([…]) were divided into 2 groups: one animal in each cage was bled and perfused with saline, after which the brain was collected and frozen in liquid nitrogen for PK analysis. The second animal in the cage was sacrificed by CO2 asphyxiation and the nasal cavity (including the olfactory epithelium), nasopharynx, paranasal sinus, trachea, lungs, brain, heart and larynx were collected and fixed in 4% formaldehyde and Histopathological evaluation (H&E staining) was performed. Inflammatory status was evaluated. Slide preparation was followed by histopathological examination of the collected organs during scheduled termination and necropsy from all the animals. Tissues were trimmed, embedded in paraffin, sectioned at approximately five micron thickness and stained with Hematoxylin & Eosin (H&E).

The subject of another series is Sprague-Dawley rats. Put plainly: Topiramate safety and toxicity study (food consumption, body weight, histopathology). Type of series: in vivo, rat. As to the method: A study was performed to evaluate the safety and toxicity, including adverse effects, of Topiramate following intranasal administration via a SipNose device to Sprague-Dawley (SD) rats. A dose 8 times the therapeutic dose was administered in order to determine the maximal tolerated dose. Doses used in this study were chosen to assess the safety of the approved drug given via the nose with an embodiment of a sipNose device.
Animals were observed individually at least once during the first 30 minutes after dosing, with special attention during the first four hours and prior to termination. Observations included changes in skin and fur, eyes and mucous membranes, and also respiratory, circulatory, autonomic and central nervous systems, and somatomotor activity and behavior pattern.
Body weight was monitored one day after the animals' arrival, prior to administration of the test material and before termination.
Animals were sacrificed via carbon dioxide asphyxiation and gross pathology was performed, examining the major tissue and organ systems.
Lungs were evaluated in both right and left lobes. All tissues were trimmed into block cassettes and sent to L.E.M for slide preparation and staining.

Series [7] relates to rats. Put plainly: Repeated Topiramate dosing: histopathological evaluation. Format: in vivo, rat. Particulars: all samples of all tissues examined, 6 days dosing. The method, then: as §1, §2
Animals were sacrificed 45 minutes after the first administration of Day 1 and the last administration of Day 6, following blood sampling of 400 μL, if required, as described below. Three (3) rats, sacrificed after the first dosing day, were perfused with saline for PK analysis of blood and brain. Animals sacrificed on the last day of the study (after one dose only) were divided into 2 groups: one animal in each cage was bled and perfused with saline, after which the brain was collected and frozen in liquid nitrogen for PK analysis. […] Inflammatory status was evaluated. […]

The next series concerns patients. Particulars: commercial use; cited from earlier work.
Series [8] relates to rats. Description: Repeated Topiramate dosing: body weight and food consumption. Format: in vivo, rat.
Source text: The study investigated repeated intra-nasal delivery of Topiramate, using SipNose's novel device, in order to evaluate its effect on food consumption, body weight, and behavior and to measure the concentrations of the drug in the brain and plasma, in comparison to oral administration. Also, the safety of repeated dosing was examined.
The probability of appetite loss is a potential indicator for Topiramate. Food consumption was monitored during the experiment, and as the expectation was that food consumption will be reduced, care was taken in order to make sure it is not too dramatic or harmful to the animals.
A total of 38 rats were utilized. Thirty six (36) rats were divided into four groups of nine animals in each group. Two animals were used as the naïve, untreated group.
Topiramate was used in its original API form with no specific formulation. Topiramate was delivered to the nasal cavity either as a dry powder or as a solution of 10 mg/ml solubilized in Saline.
Application was by means of a SipNose device (FIG. 105) configured for use in the nasal cavities of rats. In order to alleviate the discomfort animal might endured during IN administration, Lidocaine was locally applied on the nasal area, prior to placement of the SipNose's device.
as §1
Body weight was recorded upon arrival, 2 days before study initiation and once a day thereafter.

A short description of series [9]: SPECT-CT distribution of 99mTC-DTPA aerosol in nasal cavity and nasopharynx. Type of series: in vivo. Particulars: human volunteer, 300 microliters, air volume 20 ml. As to the method: The effects of air volume and air pressure on the distribution of 99mTC-DTPA aerosol in the nasal cavity and nasopharynx were examined using SPECT-CT for two human volunteers.
In both cases, the deposited material comprised 300 microliters of DTPA; 1.75 mc (milli Ciri) and the air volume was 20 ml. A pressure of 6 barg was used for the results shown in FIG. 31A, while a pressure of 4 barg was used for the results shown in FIG. 31B.

Experimental for in vivo: as §3, §4, §5, §6, §7

Consider `O=C1OC2(c3ccc(O)cc3Oc3cc(O)ccc32)c2ccccc21` [Fluorescein], for which, in series [1], the “distribution within the brain” value is reported as “distributed throughout the brain, rather than being concentrated in the cerebellum”; the “early deposition in the spinal cord” value is on record as “considerably less early deposition”; the “uptake to the brain vs I/V” value is given as “considerably more uptake to the brain”.

In the case of “Lispro Insulin: Human Insulin (Lispro insulin, 5807 Da)”, the “delivery of insulin to the brain (brain concentration, ELISA)” value in series [2] is “delivered to the brain with the SipNose device and can be specifically detected”. For the same molecule, the “distribution of insulin in parts of the brain” value in series [3] (SipNose direct-nose-to-brain) was “Insulin in both anterior and posterior parts of the brain”. Besides, the “efficiency of delivery to the brain compared to I/V” value in series [3] (SipNose nasal vs IV) is “highly efficient when compared to I/V administration”.

What is called half-life is how long it takes for the measured level to halve. The term AUC denotes concentration integrated over time. Regarding `CC1(C)O[C@@H]2[C@@H](CO[C@@]3(COS(N)(=O)=O)OC(C)(C)O[C@@H]23)O1` [Topiramate], the “time for which ED50 is stable after oral administration” value in the series on rats [4] was 8 h. The half-life is 0.75 h in “in vivo” and 4.32 h in the series “in vivo” (inhaled or intranasal). Further, in “in vivo” (po, AUC (estimated)), the AUC is 11800 ng·h/mL. In series [5] (male, Sprague-Dawley, 10 min), the “lower plasma value 10 minutes after second vs first administration” value was determined as 26%. Also, the “plasma level 10 minutes after first administration, IN vs oral” value in series [5] (male, Sprague-Dawley, 10 min) was “about twice the concentration found 10 minutes after oral administration”. For the same molecule, the “Half-life (estimated)” value in series [5] (male, Sprague-Dawley, inhaled or intranasal, 6 mg) was 5.07 h. For the same molecule, in [5] (male, Sprague-Dawley, po, 10 min), the “higher plasma value 10 minutes after second vs first administration” value was found to be 84%. Further, in series [5], the “plasma levels 18 hours after the second administration” value is reported as “dropped to pre-administration levels”. Further, the concentration at 45 min in series [6] (brain, other: IN (intranasal) via SipNose device, group 4M powder IN, read-out: Topiramate brain concentration following the 11th administration) was found to be 1030 ± 172 ng/mL; in [6] (plasma, other: IN (intranasal) via SipNose device, group 3M liquid IN, 45 minutes, read-out: Topiramate plasma concentration after the first administration), 1510 ± 505 ng/mL; in series [6] (plasma, other: IN (intranasal) via SipNose device, group 4M powder IN, 45 minutes, read-out: Topiramate plasma concentration after the first administration) it was 4140 ± 597 ng/mL; in series [6] (plasma, other: IN (intranasal) via SipNose device, group 4M powder IN, read-out: Topiramate plasma (blood) concentration following the 11th administration) it was 1980 ± 256 ng/mL; in series [6] (plasma, po, group 2M liquid oral, 45 minutes, read-out: Topiramate plasma concentration after the first administration) it was 2070 ± 228 ng/mL. Besides, the results for the “Food consumption on Day 2, relative to naïve rats” value with Sprague-Dawley rats (rats treated IN with Topiramate liquid), in the series with Sprague-Dawley rats (rats treated by Topiramate powder IN) and in the series with Sprague-Dawley rats (rats treated orally with Topiramate) were 98%, “around 60%” and 91%, respectively. In addition, in the series on Sprague-Dawley rats (rats, all groups), the “body weight change from study initiation to termination” value is given as “relatively minor”. Further, in the series with Sprague-Dawley rats (rats, any animal, any investigated tissue, 6 mg twice, oral or IN), the “drug-related pathological changes (histology)” value is “No drug-related pathological changes were detected”. Moreover, the “histopathological findings after repeated dosing” value in the series with rats [7] is “No major histopathological findings were observed”. The “patients with side effects such as somnolence, fatigue and dizziness” value in the series with patients is recorded as “over 10%”. Further, the food consumption entry in the series with rats [8] (Group 2M liquid Topiramate oral) is given as “increased food consumption”; in the series on rats [8] (Group 3M liquid Topiramate IN SipNose) it was “reduced food consumption”; with rats [8] (Group 4M dry powder Topiramate IN SipNose), “reduced food consumption”. Besides, the “increase in body weight relative to all other treatment groups” value with rats [8] (Group 2M, end of treatment period (day 6)) came out at 2 fold. For the same molecule, the “increase in body weight during the treatment phase” value was “approximately 17%” in the series with rats [8] (Group 2M, liquid Topiramate oral, 0.78 mg twice a day, 6 days) and roughly 8% in the series with rats [8] (the other treatment groups (IN via SipNose)).

For the molecule `O=C([O-])CN(CCN(CC(=O)[O-])CC(=O)[O-])CCN(CC(=O)[O-])CC(=O)[O-].[99Tc+4]` [99mTC-DTPA], the “distribution of aerosol (SPECT-CT)” value in series [9] (pressure 4 barg) was “localized in the nasal cavity at the respiratory and olfactory epitheliums and also moved down into the Nasopharynx (upper dotted arrow) and into the GI tract”; in series [9] (pressure 6 barg), “localized in the nasal cavity at the respiratory and olfactory epitheliums (dashed arrow) and did not reach the Nasopharynx and did not enter the GI tract”.
